The record followed here is ChEMBL document CHEMBL1201862, “PubChem BioAssay data set” (2004).

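Step 1: Grow cells in 96-well plates. Step 2: Expose to compound for 48 hours at 5 concentrations. Step 3: Interpolate endpoints linearly; if unreached, use highest concentration. At the GI50, growth is halved.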 Activity calls are given as the source filed them. No stated cut-off is given here; in the data, active = GI50 up to about 1.1 µM and inactive = higher.

Test systems include HT-29; IGROV-1; KM12; M14; Malme-3M; NCI-H23; NCI-H460; OVCAR-8; RPMI-8226; RXF 393; SK-MEL-5; SK-OV-3; SNB-75; SW-620; UO-31; HCT-116; HOP-62; SK-MEL-2; MCF7; NCI/ADR-RES.
What all share (assay): DTP human tumour cell line panel, 48 h

With `CC(C)CCC1CC2C(=O)N(c3ccccc3)C(=O)C2c2[nH]c3ccccc3c21` (configuration not stated), the GI50 in the test on HT-29 is 3.4 µM (inactive); in the test with IGROV-1, 13.4 µM (inactive); in the test with KM12, 1.28 µM (inactive); in the test on M14 it was 0.288 µM (active); in the test with Malme-3M, 0.871 µM (active); in the test on NCI-H23 it was 2.79 µM (inactive). For the same compound, the GI50 is 1.13 µM (inactive) in the test with NCI-H460; 0.9 µM (active) in the test with OVCAR-8; 1.08 µM (active) with RPMI-8226; 0.83 µM (active) in the test with RXF 393; 0.347 µM (active) in the test with SK-MEL-5; 1.36 µM (inactive) in the test on SK-OV-3. Besides, the GI50 in the test with SNB-75 was 2.22 µM (inactive); in the test on SW-620 it was 0.796 µM (active); with UO-31 it was 6.28 µM (inactive).

On to `CC(=O)N(CCN1C(=O)c2ccccc2C1=O)CCN1C(=O)c2ccccc2C1=O`, for which the GI50 with HCT-116, with HOP-62, in the test with KM12, with M14, in the test on NCI-H23 and with NCI-H460 was > 100 µM (inactive) each time. For the same compound, the GI50 with OVCAR-8, with RPMI-8226, in the test on RXF 393, in the test with SK-MEL-2, with SK-MEL-5 and with SK-OV-3 was > 100 µM (inactive) in each case. The GI50 with SNB-75, in the test with SW-620 and in the test on UO-31 was > 100 µM (inactive) in each case.

`CCOP(=O)(OCC)/C(C#N)=C/c1cccn1Cc1ccccc1`: the GI50 is 17 µM (inactive) with HCT-116; 40 µM (inactive) in the test with HOP-62; 32.7 µM (inactive) with HT-29; 26.1 µM (inactive) in the test on IGROV-1; 26.9 µM (inactive) in the test on KM12; 48.1 µM (inactive) with M14. The GI50 with MCF7 was 29.5 µM (inactive); with Malme-3M it was 32.3 µM (inactive); in the test with NCI-H23 it was 31.3 µM (inactive); in the test with NCI-H460 it was 31.9 µM (inactive); in the test with NCI/ADR-RES, 26.2 µM (inactive); in the test with OVCAR-8 it was 33.6 µM (inactive). The GI50 with RXF 393 was 30.8 µM (inactive); in the test on SK-MEL-2, 21.3 µM (inactive); in the test with SK-MEL-5, 16.1 µM (inactive); in the test on SK-OV-3, 53 µM (inactive); in the test on SNB-75 it was 39.9 µM (inactive); in the test on SW-620 it was 25.8 µM (inactive). Also, the GI50 with UO-31 was 24.4 µM (inactive).

Consider `N#Cc1c(N2CCOCC2)ncn(-c2ccccc2)c1=O`, for which the GI50 with HCT-116 was > 100 µM (inactive); in the test with HOP-62 it was > 100 µM (inactive); in the test with IGROV-1, 63.4 µM (inactive); with KM12 it was > 100 µM (inactive); with M14 it was > 100 µM (inactive); with MCF7, > 100 µM (inactive). Moreover, the GI50 in the test with NCI-H23, in the test on NCI-H460, in the test on NCI/ADR-RES, in the test on OVCAR-8, in the test on RPMI-8226 and in the test with SK-MEL-2 was > 100 µM (inactive) in each case. Also, the GI50 was > 100 µM (inactive) in the test on SK-MEL-5; > 100 µM (inactive) with SK-OV-3; > 100 µM (inactive) with SNB-75; > 100 µM (inactive) in the test with SW-620; 59.4 µM (inactive) in the test with UO-31.

Regarding `O=C1CSC(c2ccccc2)N1c1ccc(-c2ccc(-n3c(-c4ccccc4)nc4ccccc4c3=O)cc2)cc1` (configuration not stated), the GI50 is > 100 µM (inactive) in the test on HOP-62; 46.1 µM (inactive) in the test with HT-29; > 100 µM (inactive) in the test on IGROV-1; 26.2 µM (inactive) in the test with KM12; 50 µM (inactive) in the test on M14; 35.1 µM (inactive) in the test with MCF7. In addition, the GI50 in the test with Malme-3M was 35.4 µM (inactive); in the test on NCI-H23 it was 57.1 µM (inactive); in the test with NCI-H460, 46 µM (inactive); in the test with NCI/ADR-RES, 43.5 µM (inactive); in the test on OVCAR-8, 44.4 µM (inactive); in the test with RPMI-8226, 36.8 µM (inactive). The GI50 with SK-MEL-2 is 25.5 µM (inactive); with SK-MEL-5, 25.2 µM (inactive); in the test with SK-OV-3 it was > 100 µM (inactive); with SW-620 it was 97.7 µM (inactive); in the test with UO-31 it was 49.8 µM (inactive).

With `COc1ccc(-c2cc(=O)c3ccccc3o2)cc1N`, the GI50 in the test with HCT-116 is 32.8 µM (inactive); with HOP-62, 20.5 µM (inactive); in the test with HT-29, 32.8 µM (inactive); in the test on IGROV-1 it was 55.5 µM (inactive); with KM12, 29.3 µM (inactive); in the test on M14 it was 27.1 µM (inactive). Moreover, the GI50 in the test with Malme-3M was > 100 µM (inactive); with NCI-H23 it was 38.5 µM (inactive); in the test on NCI-H460, 36 µM (inactive); with OVCAR-8 it was 36.1 µM (inactive); with RPMI-8226 it was 44.8 µM (inactive); with RXF 393, 23.6 µM (inactive). The GI50 in the test on SK-MEL-2 is 37.2 µM (inactive); with SK-MEL-5 it was 25.8 µM (inactive); in the test on SK-OV-3 it was > 100 µM (inactive); with SNB-75 it was 18.7 µM (inactive); with SW-620, 38.4 µM (inactive); in the test with UO-31, 19.9 µM (inactive).

As for `CC1(C)CNC(=O)C2(/C=N/C(C)(C)CNC(=O)C3(/C=N/1)CCCO3)CCCO2` (configuration not stated), the GI50 in the test with HCT-116, with HOP-62, in the test on HT-29, in the test with IGROV-1, in the test with KM12 and in the test with M14 was > 10 µM (inactive) each time. Also, the GI50 in the test on MCF7, in the test with Malme-3M, in the test on NCI-H23, in the test on NCI/ADR-RES, with OVCAR-8 and in the test on RPMI-8226 was > 10 µM (inactive) throughout. Besides, the GI50 in the test on RXF 393, in the test on SK-MEL-5, in the test with SK-OV-3, in the test with SNB-75 and in the test on SW-620 was > 10 µM (inactive) in each case.

Turning to `COc1ccc(-c2nnc3c4ccccc4sn23)cc1`, the GI50 in the test with HCT-116 is 30.2 µM (inactive); in the test with HOP-62, 5.69 µM (inactive); in the test with HT-29, 26.8 µM (inactive); with IGROV-1, 19.8 µM (inactive); with KM12, 19.3 µM (inactive); in the test on M14, 26.4 µM (inactive). The GI50 is 13.3 µM (inactive) with NCI-H23; 4.58 µM (inactive) with NCI-H460; 32.5 µM (inactive) in the test on OVCAR-8; 19.1 µM (inactive) in the test with RPMI-8226; 6.43 µM (inactive) in the test on RXF 393; 19 µM (inactive) in the test with SK-MEL-2. The GI50 in the test with SK-MEL-5 is 34.4 µM (inactive); with SNB-75, 10.2 µM (inactive); in the test with SW-620, 49 µM (inactive); in the test on UO-31 it was 14.3 µM (inactive).

Consider `CCCCCCCCC[C@@H]1C[C@H](O)[C@H](Cc2ccccc2)N1C(=O)OC(C)(C)C`, for which the GI50 was 17.9 µM (inactive) in the test on HCT-116; 19.9 µM (inactive) with HOP-62; 16.7 µM (inactive) with HT-29; 18.6 µM (inactive) in the test on IGROV-1; 18.7 µM (inactive) with KM12; 22.6 µM (inactive) in the test on M14. The GI50 in the test on Malme-3M is 20.1 µM (inactive); in the test on NCI-H23, 15.6 µM (inactive); with OVCAR-8, 17.5 µM (inactive); with RPMI-8226 it was 24.1 µM (inactive); in the test with RXF 393 it was 17.7 µM (inactive); in the test with SK-MEL-2, 15.3 µM (inactive). For the same compound, the GI50 with SK-MEL-5 is 19.1 µM (inactive); in the test on SK-OV-3 it was 19.6 µM (inactive); with SNB-75, 21.9 µM (inactive); in the test on SW-620, 20.1 µM (inactive); in the test with UO-31, 14.3 µM (inactive).

With `CC(C)(C)[Si](C)(C)OCC1CCC(n2cnc3c(N)ncnc32)O1` (configuration not stated), the GI50 is 39.2 µM (inactive) with HCT-116; 95.7 µM (inactive) in the test on HOP-62; 94.4 µM (inactive) in the test with HT-29; 53.8 µM (inactive) in the test with IGROV-1; 39.1 µM (inactive) in the test on KM12; 38.8 µM (inactive) with M14. Also, the GI50 is 30.6 µM (inactive) in the test with NCI-H23; 54.7 µM (inactive) with NCI-H460; 45.4 µM (inactive) with OVCAR-8; 42 µM (inactive) with RPMI-8226; 84.1 µM (inactive) with RXF 393; 32.1 µM (inactive) with SK-MEL-2. Also, the GI50 was 17.1 µM (inactive) with SK-MEL-5; 65 µM (inactive) with SK-OV-3; 67.8 µM (inactive) in the test with SNB-75; > 100 µM (inactive) with SW-620; 44.4 µM (inactive) with UO-31.

As for `O=C(O)c1ccc([N+](=O)[O-])c2c(=O)c3ccccc3[nH]c12`, the GI50 with HCT-116, with HOP-62, in the test on HT-29, in the test with IGROV-1, in the test with KM12 and in the test with M14 was > 100 µM (inactive) in each case. In addition, the GI50 with Malme-3M, with NCI-H460, in the test with OVCAR-8, with RPMI-8226, in the test with RXF 393 and in the test with SK-MEL-2 was > 100 µM (inactive) each time. In addition, the GI50 in the test with SK-MEL-5 is > 100 µM (inactive); in the test with SK-OV-3, > 100 µM (inactive); in the test with SNB-75, 99.5 µM (inactive); with SW-620 it was > 100 µM (inactive); with UO-31 it was > 100 µM (inactive).

In the case of `COc1cc(C(C)c2cc3c(cc2OCCO)OCO3)cc(OC)c1OC` (configuration not stated), the GI50 in the test on HCT-116 is 1.38 µM (inactive); in the test with HOP-62 it was 1.74 µM (inactive); in the test with HT-29, 0.436 µM (active); with IGROV-1, 0.832 µM (active); in the test on M14 it was 1.18 µM (inactive); in the test on Malme-3M, > 100 µM (inactive). In addition, the GI50 in the test with NCI-H23 is 1.91 µM (inactive); in the test on NCI-H460, 2.2 µM (inactive); in the test on OVCAR-8 it was 3.27 µM (inactive); with RPMI-8226, 4.59 µM (inactive); in the test on RXF 393, 0.63 µM (active); with SK-MEL-2, 2 µM (inactive). Further, the 50% growth inhibitory concentration (GI50) was 0.667 µM (active) with SK-MEL-5; 2.19 µM (inactive) in the test on SK-OV-3; 1.2 µM (inactive) in the test with SNB-75; 0.746 µM (active) with SW-620; 5.82 µM (inactive) in the test with UO-31.

For orientation: GI50 means the concentration at which growth is held to half of that of the control.
